Measured values reported in patent US10316008B2, “KCNQ potassium channel agonist, and preparation method therefor and use thereof” (SHANGHAI INSTITUTE OF MATERIA MEDICA, CHINESE ACADEMY OF …, priority 2014, dated 2019).
Structures can show the parent of a compound that is named as a salt.

What was measured:
[1] = tested on: KCNQ potassium channel; assay: Whole-cell voltage-clamp recording in CHO-K1 cells transfected with KCNQ plasmid; assay type: cell-based; conditions: for I/I0: current enhancement factor, −10 mV testing voltage, compound concentration 10 μM, >1 activating, <1 inhibiting; for ΔV1/2: shift of V1/2, negative sign = left-ward shift of current activation curve, compound 10 μM, CHO-K1 cells
Experimental: The culture medium for Chinese hamster oocytes (CHO-K1) (Culture Collection of Chinese Academy of Sciences): 50/50 DMEM/F-12 (Cellgro, Manassas, Va.), added with 10% fetal bovine serum (FBS) (Gibco, Australia) and 2 mM L-glutamic acid (Invitrogen). […] Lipofectamine 2000™ agent (Invitrogen) was used for Transfection according to the protocol thereof. GFP (green fluorescent protein) was cotransfected to be used as a indication of successful converting into KCNQ plasmid.
Whole-cell voltage-clamp recording was performed on an Axopatch-200B amplifier (Molecular Devices, Sunnyvale, Calif.) at room temperature. The electrode was made by drawing borosilicate glass capillary (World Precision Instruments, Sarasota, Fla.). The electric resistance of the electrode filled with an intracellular fluid is 3 to 5 MΩ. […] During the recording, an extracellular fluid was continuously perfused by using a BPS perfusion system (ALA Scientific Instruments, Westburg, N.Y.). The composition of the extracellular fluid (1 L) was as follows: 140 mM NaCl(Sigma), 5 mM KCl(Sigma), 2 mM CaCl2(Sigma), 1.5 mM MgCl2(Sigma), 10 mM HEPES(Sigma) and 10 mM glucose(Sigma) (pH was adjusted to 7.4 with NaOH). […] Series resistors compensate 60 to 80%. Up to date, multivoltage scheme was generally adopted, wherein the clamp voltage was set at −80 mV, stimulating voltage was a gradient voltage from −90 mV to 60 mV with interval of 10 mV, and the stimulating time for each voltage was 2000 ms.
V1/2 is the voltage at which 50% of cells were activated, ΔV1/2 is the shift amount of V1/2, negative sign (−) represents a left-ward shift of the current activation curve. I/I0 represents the current enhancement factor, wherein, I0 is the maximum induced current produced under stimulation of −10 mV testing voltage after administrating cells with blank extracellular fluid, I is the maximum induced current produced under stimulation of −10 mV testing voltage after administrating the drug (the compound concentration was 10 μM), I/I0>1 represents activating activity, and I/I0<1 represents inhibiting activity. N is the number of tested cells. NT represents non-tested.

[2] = target: T1, KCNQ2 homotetramer channel (Homo sapiens, UniProt O43526); assay: KCNQ2 channel dose-response curve in CHO-K1 cells transfected with KCNQ2 plasmid; assay type: cell-based
T1 construct: expressed in transfected cells; host or cells: CHO-K1
Experimental: The culture medium for Chinese hamster oocytes (CHO-K1) (Culture Collection of Chinese Academy of Sciences): 50/50 DMEM/F-12 (Cellgro, Manassas, Va.), added with 10% fetal bovine serum (FBS) (Gibco, Australia) and 2 mM L-glutamic acid (Invitrogen). Expression of KCNQ channels: 24 h before transfection, CHO-K1 spreaded on a dish with a diameter of 60 mm. Lipofectamine 2000™ agent (Invitrogen) was used for Transfection according to the protocol thereof. GFP (green fluorescent protein) was cotransfected to be used as a indication of successful converting into KCNQ plasmid.
Whole-cell voltage-clamp recording was performed on an Axopatch-200B amplifier (Molecular Devices, Sunnyvale, Calif.) at room temperature. The electrode was made by drawing borosilicate glass capillary (World Precision Instruments, Sarasota, Fla.). The electric resistance of the electrode filled with an intracellular fluid is 3 to 5 MΩ. The composition of the intracellular fluid (1 L) was as follows: 145 mM KCl(Sigma), 1 mM MgCl2(Sigma), 5 mM EGTA(Sigma), 10 mM HEPES(Sigma) and 5 mM MgATP(Sigma) (pH was adjusted to 7.3 with KOH). During the recording, an extracellular fluid was continuously perfused by using a BPS perfusion system (ALA Scientific Instruments, Westburg, N.Y.). The composition of the extracellular fluid (1 L) was as follows: 140 mM NaCl(Sigma), 5 mM KCl(Sigma), 2 mM CaCl2(Sigma), 1.5 mM MgCl2(Sigma), 10 mM HEPES(Sigma) and 10 mM glucose(Sigma) (pH was adjusted to 7.4 with NaOH). Electric signal was filtered at 1 kHz and further converted into digital signal by using pClamp 9.2 software (Molecular Devices, Sunnyvale, Calif.) in DigiData 1322A. Series resistors compensate 60 to 80%. Up to date, multivoltage scheme was generally adopted, wherein the clamp voltage was set at −80 mV, stimulating voltage was a gradient voltage from −90 mV to 60 mV with interval of 10 mV, and the stimulating time for each voltage was 2000 ms.
The experimental procedure was the same as that in Electrophysiological Example 1. […]

[3] = tested on: convulsive mice induce by MES; assay: MES (maximum electroshock) induced convulsion model, oral perfusion; assay type: in vivo, KM mice; conditions: Mus musculus, 0.5 h; mice, oral perfusion, MES 30 mins after administration; read-out: ED50 (50% effective dose)
Source text: YLS-9A model physiological pharmaceutical electronic stimulator was used in the experiment to induce convulsion of mice, and specific parameters were set as follows: configuration 8, stimulating voltage: 160V, period of stimulation: 5.4 sec. Healthy KM mice (SPF level, male, body weight: 18 to 22 g) were selected for the experiment. After the ear tip of the mice was sufficiently wetted with physiological saline, the mice was electrically stimulated once with ear clip electrode, and tonic hind-limb seizure was deemed as indication of convulsion. The mice were screened one day before the experiment to weed out the dead mice and the ones without generalized tonic seizure. The qualified mice were caged randomly with access to water at liberty. Before the experiment started, the mice were fasted for 8 h.
The compounds to be tested were freshly formulated on the day of experiment. RTG hydrochloride was dissolved with ultrapure water to obtain a solution with desired concentration. K41.HCl and K43.HCl were formulated with 5% DMSO+95% of 1% Tween80, that is, a proper amount of the compound to be tested was weighted and, first, sufficiently dissolved in 5% DMSO, and then added with a desire volume of 1% Tween80 to be sufficiently suspended to form a suspension with a certain drug concentration. The mice screened one day before were randomly grouped with each group having 10 mice, marked, weighted and then administered with the compound to be tested or solvent (5% DMSO+95% (1% Tween 80)) by oral perfusion with administered volume of 0.2 ml/10 g. The dose range for each compound was 1 to 56 mg/kg for RTG, 1 to 40 mg/kg for K41.HCl, and 0.5 to 4 mg/kg for K43.HCl. 30 mins after administration, MES experiment was performed and the experimental parameters were the same as the above. The number of mice with generalized tonic-clonic convulsion in each group was recorded, the protection rate of each of the compounds to be tested on convulsive mice induce by MES was calculated and dose-response curve for each compound was plotted. The dose-response curve for each compound was obtained according to the analysis of Graphpad Prism 5 software, as shown in FIG. 3.

[4] = tested on: motor coordination ability of mice; assay: Rotarod experiment, motor coordination ability (acute neurotoxicity); assay type: in vivo, KM mice; conditions: TD50 Rotarod / ED50 MES
Experimental: (§1) YLS-4C Rotarod system was used in the experiment, wherein the diameter of the rod was 3 cm and the rotate speed was set at 6 rpm. Healthy KM mice (SPF level) were selected, wherein male and female were equal, the body weight was 18 to 22 g. One day before experiment, the mice were place on the rotarod for training and screening. The tail tip of mice was held to make them creep on the rotarod during the training. […] The mice that jumped on the rotarod or griped the rotarod were weed out. In addition, three time periods were set with 1 min for each. […] The qualified mice were randomly caged according to the gender, and allowed to eat and drink freely.
(§2) On the day of the experiment, each compound to be tested was freshly formulated by the same method as described in MES experiment. If the compound was not sufficiently suspended, the suspension was further mixed by ultrasonication for 20 min so as to make the compound sufficiently suspended. […] 30 mins after administration, Rotarod experiment was performed and the experiment parameters were the same as the above. The number of mice that fell off from the rorarod was recorded, and the influence of each compound on motor coordination ability of mice was analyzed. The curve for dose of each compound verse motor deficit (percentage) of mice for each compound was obtained according to the analysis of Graphpad Prism 5 software and was shown in FIG. 4.

[5] = as above; assay type: in vivo, KM mice; conditions: both sexes, KM, mouse, in vivo; mice, oral perfusion, Rotarod 30 mins after administration; read-out: TD50 (50% acute neurotoxicity dose)
Experimental: as §1, §2

[6] = Stability of solution exposed to air; conditions: solution exposed to air (aqueous solution for RTG hydrochloride)
[7] = data from FDA Pharmacology Review(s), Potiga tablets; cited from earlier work

T1 sequence (O43526 whole entry): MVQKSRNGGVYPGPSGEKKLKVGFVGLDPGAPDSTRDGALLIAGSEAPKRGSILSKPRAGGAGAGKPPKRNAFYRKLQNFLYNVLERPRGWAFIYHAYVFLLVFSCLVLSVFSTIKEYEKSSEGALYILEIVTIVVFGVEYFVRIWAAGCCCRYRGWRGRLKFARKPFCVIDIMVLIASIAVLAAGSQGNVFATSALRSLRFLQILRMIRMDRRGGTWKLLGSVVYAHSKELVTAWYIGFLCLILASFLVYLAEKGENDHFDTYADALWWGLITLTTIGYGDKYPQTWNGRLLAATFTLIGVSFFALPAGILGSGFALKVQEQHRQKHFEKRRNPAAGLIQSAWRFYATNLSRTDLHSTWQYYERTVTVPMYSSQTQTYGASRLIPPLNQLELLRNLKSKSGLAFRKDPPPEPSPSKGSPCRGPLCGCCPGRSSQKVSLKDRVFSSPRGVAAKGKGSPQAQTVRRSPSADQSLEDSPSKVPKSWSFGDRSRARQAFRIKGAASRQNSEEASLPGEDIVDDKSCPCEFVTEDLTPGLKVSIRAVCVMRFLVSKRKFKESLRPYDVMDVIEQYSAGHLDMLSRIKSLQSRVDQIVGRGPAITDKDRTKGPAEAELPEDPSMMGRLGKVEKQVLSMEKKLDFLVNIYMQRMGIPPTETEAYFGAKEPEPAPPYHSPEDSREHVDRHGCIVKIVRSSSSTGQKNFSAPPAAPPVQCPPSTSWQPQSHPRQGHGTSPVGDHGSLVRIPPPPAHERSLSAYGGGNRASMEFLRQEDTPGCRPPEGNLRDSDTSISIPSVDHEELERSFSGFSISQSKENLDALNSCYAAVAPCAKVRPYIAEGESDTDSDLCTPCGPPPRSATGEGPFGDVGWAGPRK

| Compound | I/I0 [1] | ΔV1/2 [1] [mV] | further results |
| --- | --- | --- | --- |
| C#CCN(Cc1ccc(F)cc1)c1ccc(NC(=O)OC)c(OC)c1 [K46•HCl] | 1.52 ± 0.55 | −6.5 ± 2.1 | – |
| C#CCN(Cc1ccc(F)cc1)c1c(C)cc(NC(=O)OC)cc1C [K44•HCl] | 0.72 ± 0.05 | 13.47 ± 2.13 | – |
| C#CCN(Cc1ccc(F)cc1)c1ccc(NC(=O)C2CCCO2)cc1 (stereo not shown) [K54•HCl] | 7.55 ± 1.92 | −30.9 ± 4.1 | – |
| C#CCN(Cc1ccc(F)cc1)c1ccc(NC(=O)OC)cc1C [K40•HCl] | 1.40 ± 0.04 | −3.42 ± 1.54 | – |
| C#CCN(Cc1ccc(F)cc1)c1ccc(NC(=O)OC)cc1OC [K45•HCl] | 0.57 ± 0.01 | −5.1 ± 0.9 | – |
| CCOC(=O)Nc1ccc(NCc2ccc(F)cc2)cc1N [RTG, retigabine, reference compound] | – | – | EC50 [2]: 1320 nM; ED50 [3]: 21.8 mg/kg; P.I (Protective index)=TD50/ED50 [4]: 3.40; TD50 at 30 min [5]: 74.2 mg/kg; stability of solution exposed to air [6]: quickly become blue and insoluble precipitate is formed; reported lethal dose [7]: 100 mg/kg |
| methyl 4-(N-parafluorobenzyl-N-3-cyclopropyl propargyl-amino) phenylaminothioformate [K59•HCl] | 1.01 ± 0.13 | −0.14 ± 2.33 | – |
| C#CCN(Cc1ccc(F)cc1)c1ccc(NC(=O)CNC(C)=O)cc1 [K56•HCl] | 1.10 ± 0.10 | −2.0 ± 1.3 | – |
| C#CCN(Cc1ccc(F)cc1)c1ccc(NC(=O)COCC)cc1 [K53•HCl] | 7.31 ± 1.09 | −14.81 ± 0.92 | – |
| C#CCN(Cc1ccc(F)cc1)c1ccc(NC(=O)CC(=O)OC)cc1 [K57•HCl] | 8.13 ± 2.57 | −31.55 ± 0.86 | – |
| C#CCN(Cc1ccc(F)cc1)c1ccc(NC(=O)OC)c(OC(F)(F)F)c1 [K48•HCl] | 1.24 ± 0.16 | −13.2 ± 1.5 | – |
| C#CCN(Cc1ccc(F)cc1)c1ccc(NC(=O)N(C)OC)cc1 [K51•HCl] | 1.61 ± 0.08 | −8.89 ± 1.12 | – |
| C#CCN(Cc1ccc(F)cc1)c1ccc(NC(=O)CN(C)C)cc1 [K55•HCl] | 1.72 ± 0.14 | −10.76 ± 4.51 | – |
| C#CCN(Cc1ccc(F)cc1)c1ccc(NC(=S)OC)cc1 [K49•HCl, methyl 4-(N-parafluorobenzyl-N-propargyl-amino) phenylaminothioformate] | 4.4 ± 1.6 | −22 ± 2.5 | – |
| C#CCN(Cc1ccc(F)cc1)c1ccc(NC(=O)COC)cc1 [K52•HCl, N-[4-(N-p-fluorobenzyl-N-propargyl-amino)-phenyl]-2-methoxyacetamide] | 5.80 ± 0.52 | −10.93 ± 1.86 | – |
| [2H]C([2H])(C#C)N(Cc1ccc(F)cc1)c1ccc(NC(=S)OC)cc1 [K47•HCl, methyl 4-(N-parafluorobenzyl-N-3,3-dideuteriumpropargyl-amino)phenylaminothioformate] | 2.10 ± 0.08 | −18.10 ± 0.03 | – |
| C#CCN(Cc1ccc(F)cc1)c1ccc(NC(=O)C2CCC(F)(F)CC2)cc1 [K58•HCl] | 1.78 ± 0.19 | −33.68 ± 1.05 | – |
| C#CCN(Cc1ccc(F)cc1)c1ccc(NC(=O)OC)c(C#N)c1 [K42•HCl] | 0.52 ± 0.01 | −5.2 ± 0.7 | – |
